Test results taken from patent US11198704B2, “Butane-tetraol-based amphiphiles and uses thereof” (Industry-University Cooperation Foundation Hanyang …, priority 2016, dated 2021).
“Also recorded” adds a separate entry of the source.

What was measured:
[1] = Critical micelle concentration (CMC) using diphenylhexatriene (DPH) fluorescent stain; assay type: physicochemical; details: aqueous solution
Experimental: A method of measuring the CMC is not particularly limited, but the CMC may be measured using methods well known in the related art. For example, the CMC may be measured by a fluorescence staining method using diphenylhexatriene (DPH).
(§1) Specifically, the critical micelle concentration (CMC) was measured using diphenylhexatriene (DPH) as a fluorescent stain, and the hydrodynamic radii (Rh) of the micelles formed by each preparation (1.0% by weight) were measured through a dynamic light scattering (DLS) experiment.

[2] = Hydrodynamic radius and size distribution of micelles by dynamic light scattering (DLS); assay type: physicochemical; details: detergent 1.0% by weight
Experimental: A method of measuring the radius of the micelles is not particularly limited, but the radius of the micelles may be measured using methods well known in the related art. For example, the radius of the micelles may be measured through a dynamic light scattering (DLS) experiment.
as §1

[3] = target: T1, human β2 adrenergic receptor (β2AR) (Homo sapiens, UniProt P07550); assay: Structural stability of β2AR, [3H]-dihydroalprenolol ([3H]-DHA) binding; assay type: biochemical; details: BTMs without CHS, DDM with CHS; for initial ligand-binding characteristics of β2AR ([3H]-DHA): CMC+0.2% by weight
T1 construct: made in house
Experimental: An experiment for determining the structural stability of a human β2 adrenergic receptor (β2AR) and a G-protein-coupled receptor (GPCR) by BTMs was performed. That is, a receptor purified with DDM was diluted with a buffer solution containing only each of the BTMs without cholesteryl hemisuccinate (CHS) or a buffer solution containing DDM with CHS. The final compound concentration was CMC+0.2% by weight, and the ligand-binding characteristics of the receptor were determined through [^3H]-dihydroalprenolol ([^3H]-DHA) binding.
Specifically, a radioactive ligand binding test was performed using the following method. β2AR was purified with 0.1% DDM (D. M. Rosenbaum et al., Science, 2007, 318, 1266-1273.), and finally concentrated to approximately 10 mg/mL (approximately 200 μM). A master binding mixture containing 10 nM [^3H]-dihydroalprenolol (DHA) supplemented with 0.5 mg/mL BSA in each 0.2% amphiphilic compound (DDM or BTMs) was prepared using the β2AR purified with DDM. The ligand-binding characteristics of the receptor purified with the amphiphilic compound at 0.2 pmol was monitored at regular intervals while the receptor was incubated at room temperature for 3 days. The ligand-binding characteristics of the receptor were determined using a water-soluble radioactive ligand binding assay as will be described below. The receptor purified with DDM or each of the BTMs was incubated with 10 nM [^3H]-DHA at room temperature for 30 minutes. The mixture was loaded on a G-50 column, and flow-through fractions were collected using 1 mL of a binding buffer (20 mM HEPES (pH 7.5) supplemented with 0.5 mg/mL BSA and 20×CMC of each amphiphilic compound, 100 mM NaCl). Then, the G-50 column was filled with 15 mL of a scintillation fluid. Receptor-bound [^3H]-DHA was counted using a scintillation counter (Beckman). Non-specific binding of [^3H]-DHA was determined by adding 2 μM of alprenolol (Sigma) in the same binding reaction. The binding affinity of [^3H]-DHA was plotted on a column graph, and each experiment was performed in triplicate.

[4] = test system: uric acid-xanthine/H+ symporter (UapA), UapAG411VΔ1-11 GFP fusion; assay: Thermal stability of UapA solubilized by detergent, fluorescence size exclusion chromatography (FSEC); parameters: species or system Aspergillus nidulans; details: detergent 1.0% by weight; 40° C. for 10 minutes
Experimental: A UapA protein is a uric acid-xanthine/H^+ symporter in Aspergillus nidulans. An experiment for measuring structural stability of a uric acid-xanthine/H^+ symporter (UapA) by BTMs in an aqueous solution was performed. The structural stability of UapA was measured using fluorescence size exclusion chromatography (FSEC).
Specifically, UapAG411VΔ1-11 (hereinafter referred to as ‘UapA’) was expressed as a GFP fusion protein in a Saccharomyces cerevisiae FGY217 strain, and divided into a sample buffer (20 mM Tris (pH 7.5), 150 mM NaCl, 0.03% DDM, and 0.6 mM xanthine). This procedure was performed according to the method disclosed in the article by J. Leung et al. (Mol. Membr. Biol. 2013, 30, 32-42). Membranes containing UapA were re-suspended in PBS (10 mM imidazole pH 8.0, 150 mM NaCl, and 10% glycerol), and a concentration of proteins was measured. […] 100 μL aliquots were removed from the respective tubes, and fluorescence reading on each sample was performed before and after the aliquots were ultracentrifuged at 150,000 g for 10 minutes to remove insoluble matter. Water-soluble fractions remaining under each condition were subjected to fluorescence SEC (FSEC) using a Superose 6 column (GE Healthcare) equilibrated with a buffer containing a proper preparation (DDM or BTM).

[5] = target: T2, melibiose permease (MelB) (Salmonella typhimurium, UniProt P30878); assay: MelB extraction and thermostability, SDS-PAGE and Western Blotting of the dissolved protein; details: 55° C., 90 minutes; detergent 1.5% by weight
T2 construct: made in house; host or cells: E. coli DW2
Experimental: The MelB protein was extracted from a membrane using BTM-C11s or DDM, and the amount and structure of the extracted protein were analyzed through SDS-PAGE and Western Blotting. A concentration of the amphiphilic compound used was 1.5% by weight, and the protein was extracted at four temperatures (0, 45, 55, and 65° C.), and incubated at the same temperature for 90 minutes. Thereafter, an amount of the protein remaining dissolved in an aqueous solution was measured to evaluate two types of performance: protein extraction efficiency and stabilization ability of the compound. The amount of the protein extracted and stabilized with each of the amphiphilic molecules is expressed as a relative value (%) of the entire amount of proteins contained in a membrane sample which is not treated with the amphiphilic molecules.
Specifically, Salmonella typhimurium melibiose permease (MelBSt) having a 10-His tag at the C-terminus thereof was expressed in E. coli DW2 cells (AmelB and AlacZY) using a plasmid pK95ΔAHB/WT MelBSt/CH10. Cell growth and membrane preparation were performed according to the method disclosed in the article by A. S. Ethayathulla et al. (Nat. Commun. 2014, 5, 3009). A protein assay was performed using a Micro BCA kit (Thermo Scientific, Rockford, Ill.). An effect of the isomers (A-BTM-C11, B-BTM-C11, and M-BTM-C11) of the BTM-C11s or DDM on the MelBSt stability was evaluated using the protocol disclosed in P. S. Chae et al. (Nat. Methods 2010, 7, 1003-1008). A membrane sample (having a final protein concentration of 10 mg/mL) containing MelBSt was incubated at four temperatures (0, 45, 55, and 65° C.) for 90 minutes in a solubilizing buffer (20 mM sodium phosphate, pH 7.5, 200 mM NaCl, 10% glycerol, and 20 mM melibiose) containing 1.5% (w/v) DDM or the BTM-C11 isomers. To remove insoluble matter, the sample was ultracentrifuged at 355,590 g at 4° C. for 45 minutes using a Beckman Optima™ MAX ultracentrifuge equipped with a TLA-100 rotor. The dissolved fraction was separated by 16% SDS-PAGE, and then immunoblotted with a Penta-His-HRP antibody (Qiagen, Germantown, Md.). The membrane fraction containing 20 μg of untreated proteins was used to represent the entire MelB, and the treated samples were loaded in each well at the same volume. MelBSt was measured by an ImageQuant LAS 4000 Biomolecular imager (GE Health Care Life Sciences) using a SuperSignal West Pico chemiluminescent substrate.

T1 sequence (P07550 whole entry): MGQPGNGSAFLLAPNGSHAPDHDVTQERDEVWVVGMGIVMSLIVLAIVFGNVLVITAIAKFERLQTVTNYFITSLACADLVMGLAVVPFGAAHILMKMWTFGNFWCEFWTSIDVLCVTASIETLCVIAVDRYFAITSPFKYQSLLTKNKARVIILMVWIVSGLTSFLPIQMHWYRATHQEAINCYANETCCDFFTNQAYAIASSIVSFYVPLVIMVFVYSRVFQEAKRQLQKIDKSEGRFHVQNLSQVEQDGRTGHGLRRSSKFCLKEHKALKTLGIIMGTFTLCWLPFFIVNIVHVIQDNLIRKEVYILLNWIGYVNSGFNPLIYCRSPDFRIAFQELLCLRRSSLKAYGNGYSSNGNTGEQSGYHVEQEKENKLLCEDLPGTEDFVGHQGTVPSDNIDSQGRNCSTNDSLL
T2 sequence (P30878 whole entry): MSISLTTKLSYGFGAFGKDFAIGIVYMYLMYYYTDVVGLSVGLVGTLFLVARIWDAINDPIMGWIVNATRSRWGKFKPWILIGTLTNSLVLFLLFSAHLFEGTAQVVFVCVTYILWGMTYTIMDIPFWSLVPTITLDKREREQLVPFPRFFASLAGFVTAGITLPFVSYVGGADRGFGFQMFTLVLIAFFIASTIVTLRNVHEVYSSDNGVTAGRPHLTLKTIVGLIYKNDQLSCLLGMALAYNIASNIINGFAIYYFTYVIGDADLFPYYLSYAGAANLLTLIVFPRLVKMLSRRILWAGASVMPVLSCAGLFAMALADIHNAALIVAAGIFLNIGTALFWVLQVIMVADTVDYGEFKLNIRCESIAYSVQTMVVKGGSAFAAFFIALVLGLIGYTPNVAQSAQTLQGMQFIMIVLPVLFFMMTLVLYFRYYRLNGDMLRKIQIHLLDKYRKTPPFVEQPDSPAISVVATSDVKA

| SMILES | CMC [1] | CMC (% by weight) [1] | Rh (nm), hydrodynamic radius of micelles [2] | initial ligand-binding characteristics of β2AR ([3H]-DHA) [3] | UapA monodisperse peak in FSEC (extraction and structural stability) [4] | remaining ligand-binding ability of β2AR, % of initial ([3]; after 3 days of incubation at room temperature) | effect on the long-term stability of the receptor (β2AR) ([3]; room temperature, 3 days) | amount of MelB protein remaining dissolved in aqueous solution [5] |
| --- | --- | --- | --- | --- | --- | --- | --- | --- |
| CCCCCCCCCOC[C@H](O[C@@H]1OC(CO)[C@@H](O[C@H]2OC(CO)[C@@H](O)C(O)C2O)C(O)C1O)[C@H](COCCCCCCCCC)O[C@@H]1OC(CO)[C@@H](O[C@H]2OC(CO)[C@@H](O)C(O)C2O)C(O)C1O (stereo partly drawn) [A-BTM-C9] | ~0.021 mM | ~0.0022 % by weight | 2.9 ± 0.04 nm | – | – | – | – | – |
| CCCCCCCCCCOC[C@H](O[C@@H]1OC(CO)[C@@H](O[C@H]2OC(CO)[C@@H](O)C(O)C2O)C(O)C1O)[C@H](COCCCCCCCCCC)O[C@@H]1OC(CO)[C@@H](O[C@H]2OC(CO)[C@@H](O)C(O)C2O)C(O)C1O (stereo partly drawn) [A-BTM-C10] | ~0.011 mM | ~0.0012 % by weight | 3.2 ± 0.07 nm | – | – | – | – | – |
| CCCCCCCCCCCOC[C@H](O[C@@H]1OC(CO)[C@@H](O[C@H]2OC(CO)[C@@H](O)C(O)C2O)C(O)C1O)[C@H](COCCCCCCCCCCC)O[C@@H]1OC(CO)[C@@H](O[C@H]2OC(CO)[C@@H](O)C(O)C2O)C(O)C1O (stereo partly drawn) [A-BTM-C11] | ~0.007 mM | ~0.0008 % by weight | 3.5 ± 0.03 nm | slight decrease in the ligand-binding characteristics | – | – | – | – |
| CCCCCCCCCCOC[C@@H](O[C@@H]1OC(CO)[C@@H](O[C@H]2OC(CO)[C@@H](O)C(O)C2O)C(O)C1O)[C@@H](COCCCCCCCCCC)O[C@@H]1OC(CO)[C@@H](O[C@H]2OC(CO)[C@@H](O)C(O)C2O)C(O)C1O (stereo partly drawn) [B-BTM-C10] | ~0.013 mM | ~0.0014 % by weight | 3.1 ± 0.07 nm | – | – | – | – | – |
| CCCCCCCCCCCOC[C@@H](O[C@@H]1OC(CO)[C@@H](O[C@H]2OC(CO)[C@@H](O)C(O)C2O)C(O)C1O)[C@@H](COCCCCCCCCCCC)O[C@@H]1OC(CO)[C@@H](O[C@H]2OC(CO)[C@@H](O)C(O)C2O)C(O)C1O (stereo partly drawn) [B-BTM-C11] | ~0.008 mM | ~0.0009 % by weight | 3.5 ± 0.08 nm | – | – | – | – | – |
| CCCCCCCCCOC[C@H](O[C@@H]1OC(CO)[C@@H](O[C@H]2OC(CO)[C@@H](O)C(O)C2O)C(O)C1O)[C@@H](COCCCCCCCCC)O[C@@H]1OC(CO)[C@@H](O[C@H]2OC(CO)[C@@H](O)C(O)C2O)C(O)C1O (stereo partly drawn) [M-BTM-C9] | ~0.017 mM | ~0.0017 % by weight | 3.2 ± 0.05 nm | – | – | – | – | – |
| CCCCCCCCCCOC[C@H](O[C@@H]1OC(CO)[C@@H](O[C@H]2OC(CO)[C@@H](O)C(O)C2O)C(O)C1O)[C@@H](COCCCCCCCCCC)O[C@@H]1OC(CO)[C@@H](O[C@H]2OC(CO)[C@@H](O)C(O)C2O)C(O)C1O (stereo partly drawn) [M-BTM-C10] | ~0.008 mM | ~0.0009 % by weight | 3.5 ± 0.07 nm | – | – | – | – | – |
| CCCCCCCCCCCOC[C@H](O[C@@H]1OC(CO)[C@@H](O[C@H]2OC(CO)[C@@H](O)C(O)C2O)C(O)C1O)[C@@H](COCCCCCCCCCCC)O[C@@H]1OC(CO)[C@@H](O[C@H]2OC(CO)[C@@H](O)C(O)C2O)C(O)C1O (stereo partly drawn) [M-BTM-C11] | ~0.006 mM | ~0.0006 % by weight | 4.7 ± 0.27 nm | slight decrease in the ligand-binding characteristics | significant increase in the recovery of monodisperse peaks; also recorded: most excellent effect | approximately 70% | much more superior effect in maintaining the long-term stability of β2AR, compared to DDM | complete solubility |
